How the values were obtained:
[1] = test system: human fibrosarcoma cell line HT1080; test: Test for cell migration (cell haptotaxis), Boyden double chamber; assay type: cell-based; conditions: HT1080, administered at 300 μM; coulometry and HPLC with ECD
Procedure: A Boyden double chamber was used, in which a porous film with 8 μm pores was placed, the upper surface of the porous film was coated with Matrigel as a reconstituted basement membrane, the lower surface of the porous film was coated with fibronectin as an extracellular matrix. […] Further, the concentration of ascorbic acid present in the cells was determined by coulometry and HPLC with ECD.

[2] = Stability test in aqueous solution (HPLC residual ratio); assay type: physicochemical; conditions: 0.1% aqueous solution in purified water, room temperature
Procedure: A difference in the stabilities of PVP/fullerene (molecular weight of PVP: 60,000), a fullerene monoester, and salts of a fullerene monoester in an aqueous solution (a storage test at room temperature for 10 days) is shown in Table 7. […] Incidentally, the stability was evaluated by determining the residual ratio of the above substance using the HPLC method by leaving a 0.1% aqueous solution of the above substance (in purified water) at room temperature for 10 days.

[3] = test system: Bovine aortic endothelial cells BAE2; conditions: 22 h, 50 μM
Procedure: Bovine aortic endothelial cells BAE2 were inoculated at a cell density of 8×10^4/cm^2, and after 18 hours, each of a fullerene, ascorbic acid and the fullerenes of the invention of this application of the formulation Nos. 1 to 13 shown in the above Table 1 was administered at a concentration of 50 μM which falls within the range of the level of the respective substances in the normal human blood. After 22 hours, the amounts of fullerenes and ascorbic acid present in the cells were determined by coulometry and HPLC (high-performance liquid chromatography) with ECD (electrochemical detection). The water content in the cells was measured by gas chromatography using 14C-labeled polyethylene glycol and found to be 0.598 μL/cell.

[4] = test system: rat coronary artery occlusion model; test: Test for comparative effect on organ failure (versus human Cu-Zn SOD); assay type: in vivo; conditions: 5 mg/kg intravenously before occlusion and once daily for 5 days; dissection after 10 days; control Ringer's solution with human Cu-Zn SOD
Procedure: A rat coronary artery occlusion model was subjected to systemic ischemia for 5 minutes, followed by reperfusion. When the level of free radical-dependent chemiluminescence in the peripheral blood was measured using a chemical luminescence manufactured by Showa Denko K. K. from the start of this experiment, a significant increase in the level of free radical was observed from immediately after the initiation of reperfusion. In a test group, the injectable solution of Example 2 was intravenously administered to the rat at 5 mg/kg at 15 minutes before the occlusion of the coronary artery of the rat in advance, and in a control group, a Ringer's solution supplemented with human Cu—Zn SOD was injected in the same manner as in the test group. Also after the initiation of reperfusion, the above pharmaceutical composition of the present invention was injected at the same dose once daily for 5 days, and after 10 days, dissection was carried out, and cardiac, hepatic, renal, pancreatic and cystic cell necrosis indices were determined using a 45 Ca-autoradiography/image analyzer.

| Compound | concentration of ascorbic acid present in the cells [1] | Residual ratio after 10 days (%) [2] | concentration in the cells [3] | concentration in the cells relative to that outside the cells [3] | necrosis of cardiac, hepatic, renal, pancreatic and cystic cells (45Ca-autoradiography/image analyzer) [4] |
| --- | --- | --- | --- | --- | --- |
| O=C1O[C@H]([C@@H](O)CO)C(O)=C1O [Ascorbic acid] | 103 µM | 0% | 60 µM | 1.2 times | – |
| human Cu—Zn SOD: human Cu—Zn SOD added to Ringer's solution for the control group | – | – | – | – | delayed cell death |

— patent US20080206222A1, “Preventive/Therapeutic Composition For Free Radical Disease” (priority 2004, published 2008)
